Experimental data as given in US20260078130A1, “NAMPT MODULATORS, PREPARATIONS, AND USES THEREOF” (SIRONAX LTD., priority 2022, published 2026).

What was measured:
[1] = biological target: T1, human enzyme NAMPT (full length) (Homo sapiens, UniProt P43490); assay: NMN fluorescence biochemical assay (stimulation of NMN synthesis by NAMPT); conditions: for EC50: NMN fluorescence assay, purified human NAMPT 100 nM, concentration giving half-maximal activation, read-out: Enzymatic EC50; for Enzymatic Emax: fold change of maximal activation compared to DMSO
T1 construct: human enzyme NAMPT (full length)
T1 sequence (P43490 whole entry): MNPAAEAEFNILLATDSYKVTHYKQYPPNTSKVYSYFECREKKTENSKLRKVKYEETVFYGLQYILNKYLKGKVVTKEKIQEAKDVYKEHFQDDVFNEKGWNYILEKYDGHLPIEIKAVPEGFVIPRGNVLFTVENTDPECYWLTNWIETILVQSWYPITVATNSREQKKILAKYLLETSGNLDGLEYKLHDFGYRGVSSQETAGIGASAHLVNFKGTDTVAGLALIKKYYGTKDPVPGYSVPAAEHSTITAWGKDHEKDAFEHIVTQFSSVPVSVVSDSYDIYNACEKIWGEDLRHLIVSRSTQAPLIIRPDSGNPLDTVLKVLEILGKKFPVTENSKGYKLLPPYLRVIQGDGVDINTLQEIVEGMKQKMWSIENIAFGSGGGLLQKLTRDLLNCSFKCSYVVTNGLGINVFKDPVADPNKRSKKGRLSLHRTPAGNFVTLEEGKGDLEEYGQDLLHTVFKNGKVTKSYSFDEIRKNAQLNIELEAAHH
Procedure, shortened: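 Full-length human NAMPT (100 nM) was preincubated 15 min at 37 °C with compound in 50 mM Tris-HCl pH 7.5, 10 mM MgCl2, 2 mM DTT, then reacted 1 h at 37 °C with 50 μM NAM, 100 μM PRPP, 4 mM ATP (stated solution concentrations). NMN was derivatised with acetophenone/KOH then formic acid and read at Ex/Em 382/445 nm; EC50 and Emax (fold over DMSO) reported.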

[2] = system: endogenous NAMPT in U2OS cells; assay: Cellular NAD+ modulation assay (NAD/NADH-Glo, U2OS cells); format: cell-based; conditions: Homo sapiens, 24 hours incubation, cellular NAD+; for maximal fold induction: read-out: Cellular Emax
Procedure, shortened: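 NAD/NADH-Glo luminescence quantified NAD+ after acid treatment (60 °C, 15 min) and neutralization of DTAB lysates. Beforehand, U2OS cells seeded 16 h earlier received compound concentration series for 24 h at 37 °C. Values given as half-maximal activation concentration (EC50) and maximal fold change versus DMSO (Emax).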

Row | Compound | EC50 [1] | Enzymatic Emax [1] | EC50 [2] | maximal fold induction [2]
1 | [2H]C([2H])([2H])Oc1ccc(CN2C(=O)c3ccccc3C2Cc2c(C)ccnc2C#N)cc1 (centres unmarked) [Compound 583, 3-((2-(4-(methoxy-d3)benzyl)-3-oxoisoindolin-1-yl)methyl)-4-methylpicolinonitrile] | 0.5 to 5 µM | A (A>3) | < 0.5 µM | > 1.5
2 | Cn1ncc(Cl)c1CC1c2ccccc2C(=O)N1Cc1ccc2c(c1)ncn2C (centres unmarked) [Compound 585, 3-((4-chloro-1-methyl-1H-pyrazol-5-yl)methyl)-2-((1-methyl-1H-benzo[d]imidazol-5-yl)methyl)isoindolin-1-one] | 0.5 to 5 µM | B (3≥B>2) | 0.5 to 5 µM | > 1.5
3 | COc1ccc(CN2C(=O)c3ccccc3C2Cc2c(C)ccnc2C#N)cn1 (centres unmarked) [Compound 588, 3-((2-((6-methoxypyridin-3-yl)methyl)-3-oxoisoindolin-1-yl)methyl)-4-methylpicolinonitrile] | ≥ 5 µM | B (3≥B>2) | 0.5 to 5 µM | > 1.5
4 | COc1ccc(CN2C(=O)c3ccccc3C2Cc2c(Cl)ccc(=O)n2C)cc1 (centres unmarked) [Compound 589, 3-((3-chloro-1-methyl-6-oxo-1,6-dihydropyridin-2-yl)methyl)-2-(4-methoxybenzyl)isoindolin-1-one] | 0.5 to 5 µM | A (A>3) | < 0.5 µM | > 1.5
5 | COc1ccc(CN2C(=O)c3ccccc3C2Cc2c(C#N)ccnc2C#N)cc1 (centres unmarked) [Compound 590, 3-((2-(4-methoxybenzyl)-3-oxoisoindolin-1-yl)methyl)pyridine-2,4-dicarbonitrile] | 0.5 to 5 µM | B (3≥B>2) | 0.5 to 5 µM | 1.2 to 1.5
6 | COc1ncc(CN2C(=O)c3ccccc3C2Cc2c(Cl)cnn2C)s1 (centres unmarked) [Compound 591, 3-((4-chloro-1-methyl-1H-pyrazol-5-yl)methyl)-2-((2-methoxythiazol-5-yl)methyl)isoindolin-1-one] | ≥ 5 µM | B (3≥B>2) | 0.5 to 5 µM | 1.2 to 1.5

The next lines start with results.

Row | EC50 [1] | Enzymatic Emax [1] | EC50 [2] | Compound | maximal fold induction [2]
7 | < 0.5 µM | A (A>3) | < 0.5 µM | Cn1ncc(Cl)c1CC1c2ccccc2C(=O)N1Cc1c[nH]c(=O)s1 (centres unmarked) [Compound 592, 5-((1-((4-chloro-1-methyl-1H-pyrazol-5-yl)methyl)-3-oxoisoindolin-2-yl)methyl)thiazol-2(3H)-one] | > 1.5
8 | ≥ 5 µM | B (3≥B>2) | 0.5 to 5 µM | COc1cc(CN2C(=O)c3ccccc3C2Cc2c(Cl)cnn2C)on1 (centres unmarked) [Compound 593, 3-((4-chloro-1-methyl-1H-pyrazol-5-yl)methyl)-2-((3-methoxyisoxazol-5-yl)methyl)isoindolin-1-one] | 1.2 to 1.5
9 | ≥ 5 µM | B (3≥B>2) | < 0.5 µM | Cc1noc2cc(CN3C(=O)c4ccccc4C3Cc3c(Cl)cnn3C)ccc12 (centres unmarked) [Compound 594, 3-((4-chloro-1-methyl-1H-pyrazol-5-yl)methyl)-2-((3-methylbenzo[d]isoxazol-6-yl)methyl)isoindolin-1-one] | 1.2 to 1.5
10 | 0.5 to 5 µM | B (3≥B>2) | 0.5 to 5 µM | COc1ccc(CN2C(=O)c3ccccc3C2Cc2c(C)ncnc2C#N)cn1 (centres unmarked) [Compound 595, 5-((2-((6-methoxypyridin-3-yl)methyl)-3-oxoisoindolin-1-yl)methyl)-6-methylpyrimidine-4-carbonitrile] | > 1.5
11 | 0.5 to 5 µM | B (3≥B>2) | 0.5 to 5 µM | COc1ccc(CN2C(=O)c3c(F)cc(Cl)cc3C2Cc2c(C)ccnc2C#N)cn1 (centres unmarked) [Compound 596, 3-((6-chloro-4-fluoro-2-((6-methoxypyridin-3-yl)methyl)-3-oxoisoindolin-1-yl)methyl)-4-methylpicolinonitrile] | > 1.5
